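Grown in 96-well plates, cells were treated for 48 hours with each compound at five concentrations. Insufficient inhibition: endpoint recorded as highest concentration tested. TGI marks complete inhibition of growth.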
Experiments:
Experiment in all cases: DTP human tumour cell line panel, 48 h
A498 renal = tested on: A498 renal
KM20L2 colon = tested on: KM20L2 colon
DLD-1 colon = tested on: DLD-1 colon
SNB-78 CNS = tested on: SNB-78 CNS
DMS 114 small cell lung = tested on: DMS 114 small cell lung
DMS 273 small cell lung = tested on: DMS 273 small cell lung
M19-MEL melanoma = tested on: M19-MEL melanoma
LXFL 529 NSCLC = tested on: LXFL 529 NSCLC
XF 498 CNS = tested on: XF 498 CNS
RXF-631 renal = tested on: RXF-631 renal
HOP-18 NSCLC = tested on: HOP-18 NSCLC

O=S1(=O)c2ccccc2N(O)C2=NCCN21
TGI (A498 renal): > 100 µM
TGI (KM20L2 colon): > 100 µM
TGI (DLD-1 colon): > 100 µM
TGI (SNB-78 CNS): > 100 µM
TGI (DMS 114 small cell lung): > 100 µM
TGI (DMS 273 small cell lung): > 100 µM
TGI (M19-MEL melanoma): > 100 µM
TGI (LXFL 529 NSCLC): > 100 µM

COC(=O)C1=CO[C@@H](C)[C@@H]2Cn3ccc4c5ccccc5nc-4c3C[C@H]12
TGI (A498 renal): > 100 µM
TGI (KM20L2 colon): > 100 µM
TGI (XF 498 CNS): > 100 µM
TGI (DLD-1 colon): > 100 µM
TGI (SNB-78 CNS): > 100 µM
TGI (RXF-631 renal): > 100 µM
TGI (DMS 114 small cell lung): > 100 µM
TGI (DMS 273 small cell lung): > 100 µM
TGI (HOP-18 NSCLC): > 100 µM
TGI (M19-MEL melanoma): > 100 µM
TGI (LXFL 529 NSCLC): > 100 µM

O=C(O)c1nc2cc(Cl)ccc2[nH]c1=O
TGI (A498 renal): > 100 µM

Cc1nc(OCc2ccccc2)c2ncn(CCO)c2n1
TGI (A498 renal): > 100 µM

COC(=O)c1ccc(NCc2cc(OC)ccc2OC)cc1
TGI (A498 renal): 78.8 µM

COC1OC2COC1(OCc1ccccc1)C1OC(C)(C)OC21 (stereo unspecified)
TGI (A498 renal): > 100 µM

Cn1c(-c2ccc(C=O)o2)ccc1-c1ccc(C=O)o1
TGI (A498 renal): > 100 µM

Fc1cc(C2=Nn3c(COc4ccccc4Cl)nnc3S/C2=C\c2ccc(Cl)cc2)c(Cl)cc1Cl
TGI (A498 renal): 29.7 µM

Cc1ccc(S(=O)(=O)n2cc(C=O)c(-c3cn(S(=O)(=O)c4ccc(C)cc4)cc3-c3cn(S(=O)(=O)c4ccc(C)cc4)cc3C=O)c2)cc1
TGI (A498 renal): > 100 µM

COc1ccc(/[N+]([O-])=C/c2ccc(OC(=S)S)c(OC)c2)cc1
TGI (A498 renal): > 100 µM

C#C[C@]1(O)CC[C@H]2[C@@H]3CCC4=C/C(=N\OCCN5CCCCC5)CC[C@]4(C)[C@H]3CC[C@@]21C
TGI (A498 renal): 20.5 µM

Cc1cc(N(CCC#N)CCC#N)ccc1/C(N=Nc1ccc([N+](=O)[O-])cc1)=N\NC(=O)c1cc(Cl)ccc1O
TGI (A498 renal): 94.5 µM

COc1ccc(N2C(=O)C3CC(c4ccc(Br)cc4)c4c([nH]c5ccccc45)C3C2=O)cc1 (stereo unspecified)
TGI (A498 renal): 22.3 µM
TGI (KM20L2 colon): 27.3 µM
TGI (XF 498 CNS): 32 µM
TGI (DLD-1 colon): 23.4 µM
TGI (SNB-78 CNS): 36.3 µM
TGI (DMS 114 small cell lung): 20.8 µM
TGI (DMS 273 small cell lung): 18.2 µM
TGI (HOP-18 NSCLC): 24.8 µM
TGI (M19-MEL melanoma): 25.6 µM
TGI (LXFL 529 NSCLC): 14.2 µM

O=C1CCCCCCC2=C1C(Sc1ccccc1)CC2 (stereo unspecified)
TGI (KM20L2 colon): > 100 µM
TGI (SNB-78 CNS): > 100 µM
TGI (DMS 114 small cell lung): 76.4 µM
TGI (DMS 273 small cell lung): 61.7 µM
TGI (HOP-18 NSCLC): > 100 µM
TGI (M19-MEL melanoma): > 100 µM
TGI (LXFL 529 NSCLC): > 100 µM

CN(O)C(=O)CCC(NC(=O)CCC(N)C(=O)O)C(=O)NCC(=O)O (stereo unspecified)
TGI (A498 renal): > 100 µM

ClCc1nc2ccccc2[nH]1
TGI (A498 renal): > 100 µM

OC1NC2Nc3ccccc3NC2NC1O (stereo unspecified)
TGI (A498 renal): > 100 µM

COc1c2c(c3c(c1OC)c(=O)c1ccccc1n3C)OCO2
TGI (A498 renal): > 100 µM

CCCCCCN(CCCCCC)CCC(=O)c1ccc2cc(Br)c3ccccc3c2c1
TGI (A498 renal): > 100 µM

CC(C)(C)c1cc(/C=C(\C#N)C2=NCCO2)cc(C(C)(C)C)c1O
TGI (A498 renal): 16.7 µM

O=[N+]([O-])c1ncc(N(CCO)CCO)s1
TGI (A498 renal): > 100 µM

COC(=O)Nc1nc2ccc(NS(=O)(=O)c3cccs3)cc2[nH]1
TGI (A498 renal): 91.7 µM

COc1ccc(C2SCC(=O)N2c2ccc(-n3c(-c4ccccc4)nc4ccccc4c3=O)cc2)cc1 (stereo unspecified)
TGI (A498 renal): > 100 µM

CCOC(=O)CNC(=O)C(CCC(=O)N(C)O)NC(=O)CCC(N)C(=O)O (stereo unspecified)
TGI (A498 renal): > 100 µM

C(=N\c1nc2cc3sc(/N=C/c4ccccc4)nc3cc2s1)/c1ccccc1
TGI (A498 renal): > 100 µM

C[C@H](Nc1nc(N)c(N=O)c(=O)n1C)C(=O)O
TGI (A498 renal): > 10 µM

NC1=Nc2ccccc2Sc2nncn21
TGI (A498 renal): > 100 µM

Cc1c(NC(=S)Nc2ccc([N+](=O)[O-])cc2)c(=O)n(-c2ccccc2)n1C
TGI (A498 renal): > 100 µM

CCOP(=O)(OCC)Oc1c(OC)c2[nH]c(C(=O)OC)cc2c2c(C(=O)O)c[nH]c12
TGI (A498 renal): > 100 µM

CCOC(=O)C(NC(=O)c1cccc(Cl)c1)(Nc1ccc(S(=O)(=O)Nc2cc(C)on2)cc1)C(F)(F)F (stereo unspecified)
TGI (A498 renal): > 100 µM

COc1ccc(/C=N\N(C)Cc2cccc3ccsc23)cc1
TGI (A498 renal): > 100 µM

O=S(=O)(O)c1ccc(N=Nc2ccccc2)cc1
TGI (A498 renal): > 100 µM

COC(=O)CCc1ccc(CCC(=O)OC)cc1
TGI (A498 renal): > 100 µM

COc1ccc2c(c1)c1c3c(ccc4ncn2c43)N(CCO)CCN=1
TGI (A498 renal): 0.382 µM

CCOC(=O)c1c(O)cn2c1[nH]c1cccc3cccc2c31
TGI (A498 renal): > 100 µM

COC(NC(=O)Nc1ccc(C)cc1)(C(F)(F)F)C(F)(F)F
TGI (A498 renal): 90.1 µM

CCn1c(SCC(=O)N/N=C2\SCC(=O)N2c2ccc(C)cc2)nc2ccccc2c1=O
TGI (A498 renal): 38.4 µM

Nc1ncnc2c1ncn2[C@H]1C=C[C@@H](NO)C1
TGI (A498 renal): > 100 µM

NCC(=O)Nc1ccccc1
TGI (A498 renal): > 100 µM

Source: PubChem BioAssay (NCI)
